These results are taken from paper PMC12881670, “Investigation into ligand selectivity and bias at the formyl peptide receptor family” (The Journal of Pharmacology and Experimental Therapeutics, 2025).

Where a SMILES comes first, the peptide text is derived from it. Where no end group is shown, it is not given here. [ ]: non-standard residue; d: D form. The star is where a group is joined. Palmitoyl = CCCCCCCCCCCCCCCC(=O)*; 5/6‑FAM = fluorescein

The target of assay [1] is T1, Hs_FPR2 (Homo sapiens, UniProt P25090).
T1 construct: expressed in transfected cells
T1 sequence (P25090 1-351): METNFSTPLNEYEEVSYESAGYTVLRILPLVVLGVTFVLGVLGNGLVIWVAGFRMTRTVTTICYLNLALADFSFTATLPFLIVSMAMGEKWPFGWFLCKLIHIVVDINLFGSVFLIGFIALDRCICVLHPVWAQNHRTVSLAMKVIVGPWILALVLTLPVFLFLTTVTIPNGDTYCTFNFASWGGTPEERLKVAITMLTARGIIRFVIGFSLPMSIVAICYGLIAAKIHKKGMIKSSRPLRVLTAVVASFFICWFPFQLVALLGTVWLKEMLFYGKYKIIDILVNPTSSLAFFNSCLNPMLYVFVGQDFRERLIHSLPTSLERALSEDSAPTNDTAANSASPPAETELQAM
As to the kind of experiment: Competition binding of fluorescent WKYMVm, flow cytometry. As for the experimental part:
(§1) Mean cell fluorescence was then measured for 5000 cells by flow cytometry using either a BD FACScalibur or BD Attune.
(§2) All data were analyzed using GraphPad Prism using the nonlinear regression log(agonist) versus response (3 parameters) function for all assays, except binding, which was analyzed using the One site-FitlogIC50 function. Bias calculations were carried out following IUPHAR guidelines as described,[27]^,[37] and data were presented as the Δ Activity ratio (Log[EmaxB/EC50B])-(Log[EmaxA/EC50A]).
For orientation: A flow cytometer gives signals particle by particle.

Assay [2] deals with T1, Hs_FPR2. As to the kind of experiment: BRET receptor-RLuc8 interaction with Arrestin 3-YFP. The class given is cell-based. As for the experimental part: (§3) BRET1 assays to measure FPR interaction with Venus-mGsi and Arrestin 3-yellow fluorescent protein (YFP) were performed as previously described.[31]^,[32] Briefly, all FPRs C-terminally fused to Renilla Luciferase (donor, RLuc8) were transiently transfected along with either Venus-mGsi or YFP-Arrestin 3 (acceptor) at a ratio of 1:4. 24 hours post transfection, cells were replated into white-walled, 96-well plates and cultured for a further 24–48 hours. On the day of experimentation, growth media was aspirated and replaced with 80 μl Hanks Buffered Saline Solution and equilibrated for 30 minutes. Coelenterazine h was added to each well to a final concentration of 5 μM for 5 minutes before the addition of each compound, and the plate was incubated for a further 10 minutes at 37 °C before being read on a ClarioStar Plus, with luminescence measured at 480/20 nm (donor) and 530/20 (acceptor). The BRET ratio (acceptor/donor) was determined, and the background (untreated) subtracted to give the N-BRET value.
as §2

Assay [3] deals with T2, Mm_Fpr2 (Mus musculus, UniProt O88536).
T2 construct: expressed in transfected cells
T2 sequence (O88536 1-351): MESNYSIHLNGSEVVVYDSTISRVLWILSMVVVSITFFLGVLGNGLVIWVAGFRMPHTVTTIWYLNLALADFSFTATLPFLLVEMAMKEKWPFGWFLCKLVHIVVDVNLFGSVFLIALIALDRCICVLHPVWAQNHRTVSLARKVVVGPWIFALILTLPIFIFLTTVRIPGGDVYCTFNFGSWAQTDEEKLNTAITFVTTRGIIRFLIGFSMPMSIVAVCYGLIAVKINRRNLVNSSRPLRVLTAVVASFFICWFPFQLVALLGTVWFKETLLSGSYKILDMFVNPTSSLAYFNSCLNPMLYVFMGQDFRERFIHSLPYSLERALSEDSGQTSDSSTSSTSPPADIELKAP
The description is as above. It counts as cell-based. As for the experimental part:
as §3, §2

Assay [4] concerns the target T1, Hs_FPR2. In words: ERK1/2 phosphorylation by Western blotting. The class given is cell-based. As for the experimental part: (§4) ERK phosphorylation was detected by Western blotting as previously described.[30] Briefly, HEK293 cells stably expressing FLAG-tagged FPRs were plated into 12-well culture plates until 90% confluent. On the day of the experiment, culture media was replaced with serum-free Dulbecco’s modified Eagle’s medium and incubated for 2 hours before stimulation with the indicated compounds. After 7 minutes, the media was removed and stimulation terminated by the addition of 100 μl sample buffer (0.5% SDS, Tris (pH 6.8), glycerol, at >90 °C).
as §2
For orientation: Immunoblotting shows a protein as a band on a membrane.

The target of assay [5] is T2, Mm_Fpr2. As to the kind of experiment: ERK1/2 phosphorylation by Western blotting. It counts as cell-based. As for the experimental part:
as §4, §2

For assay [6], the target named is T2, Mm_Fpr2. In words: Internalization of FLAG-tagged receptors by flow cytometry. The class given is cell-based. Details: Emax: dose or concentration left out as unconfirmed. As for the experimental part: Internalization of FPRs was measured by flow cytometry.[30] Briefly, cells were incubated with Alexa Fluor 657 conjugated M1 antiflag antibody (Sigma-Aldrich Cat# F3040, RRID:AB_439712) for 30 minutes at 37 °C to label surface receptors. Cells were then incubated with the indicated concentration of ligand before washing in PBS/0.04% EDTA to remove any remaining surface antibody. Remaining fluorescence was then measured using flow cytometry on either a BD FACScalibur or Attune, recording 5000 gated events. […] As a control, some samples were left untreated, and “strip only” was measured as a readout of constitutive endocytosis, and this value was subtracted from the data. Vehicle control (0.1% DMSO) had no effect on internalization of receptors.
as §2

Assay [7] addresses T2, Mm_Fpr2. In words: Competition binding of fluorescent WKYMVm, flow cytometry. As for the experimental part:
as §1, §2

Assay [8] addresses T1, Hs_FPR2. As to the kind of experiment: BRET receptor-RLuc8 interaction with Venus-mGsi. The class given is cell-based. As for the experimental part:
as §3, §2
A general note: Bioluminescence resonance energy transfer reports proximity on the nanometre scale.

Assay [9] addresses T2, Mm_Fpr2. As to the kind of experiment: BRET receptor-RLuc8 interaction with Venus-mGsi. It counts as cell-based. As for the experimental part:
as §3, §2

[10] abbreviates: log of EC50, phosphorylation of ERK1/2, HEK293 stable cells, mean, ND = no pERK signal detected.
Where [11] appears, read: maximum proportion of competition with 10 nM K(5/6-FAM)-WKYMVm, mean, ND = no competition observed.

As to “K(5/6-FAM)-WKYMVm-NH2 (K(5/6‑FAM)WKYMV[dM]-NH2)”, the “Kd, saturable binding” value in assay [1] (hFPR2, initial studies (not shown)) is given as “low nM range”.
One may read the Emax as the maximal effect, on the per cent scale that the assay sets. What is called EC50 is the midpoint of the concentration-response curve. One may read the IC50 as the point on the concentration scale where inhibition reaches its midpoint. Consider `CCCCCCCCCCCCCCCC(=O)N[C@@H](CCCCN)C(=O)N[C@H](C(=O)N[C@@H](Cc1c[nH]cn1)C(=O)N[C@@H](CCCCN)C(=O)N[C@@H](CCCCN)C(=O)NCC(=O)N[C@@H](CCSC)C(=O)N[C@H](C(=O)N[C@@H](CCCCN)C(=O)N[C@@H](CO)C(=O)O)[C@@H](C)CC)[C@@H](C)CC` [F2Pal10] (Palmitoyl-KIHKKGMIKS-OH), for which the Emax in assay [2] is 25.5%; in assay [3], 33.4%; in [4], 80.8%; in assay [5], 141%; in assay [6] it was 12.3%; in assay [8] it was 19.4%. The maximal response (Emax) in assay [9] was 24.2%. Besides, the EC50 in assay [2] (read-out: Log EC50 (converted)) is 282 nM; in assay [3] it was 263 nM; in [4] (setting [10]) it was 33.7 nM; in assay [5] (setting [10]), 53.3 nM; in assay [8], 166 nM; in assay [9] it was 166 nM. For the same compound, the IC50 is 5370 nM in assay [1] and 4200 nM in assay [7]. Besides, the “Max Comp (%)” value in [1] (setting [11]) and in [7] (setting [11]) was 100% each time. The “Gi interaction, % of that seen with WKYMVm” value in assay [8] (only detected at 1 and 10 μM) is listed as 20%.
